The source of these data is US8309581B2, “Benzimidazole derivatives” (Hoffmann-La Roche Inc., priority 2009, dated 2012).

In this assay the target is T1, FXR ligand binding domain (Homo sapiens, UniProt Q96RI1).
T1 construct: made in house; host or cells: E. coli BL21 (pLysS)
T1 sequence (Q96RI1 193-472 isoform Q96RI1-2): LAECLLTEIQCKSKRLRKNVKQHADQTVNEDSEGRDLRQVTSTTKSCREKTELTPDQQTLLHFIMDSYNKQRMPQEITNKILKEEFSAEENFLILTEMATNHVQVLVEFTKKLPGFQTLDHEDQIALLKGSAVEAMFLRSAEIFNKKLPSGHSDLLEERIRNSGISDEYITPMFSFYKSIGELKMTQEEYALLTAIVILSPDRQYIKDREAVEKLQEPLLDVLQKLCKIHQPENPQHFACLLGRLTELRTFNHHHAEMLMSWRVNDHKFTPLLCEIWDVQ
The assay can be described thus: Radioligand Binding Assay (scintillation proximity radioligand displacement). To be noted: GST-FXR LBD fusion protein on SPA beads, test compound 6×10^−9 M to 2.5×10^−5 M. As to the method: The following tests were carried out in order to determine the activity of the compounds of formula (I). Background information on the binding assay can be found in: Nichols J S et al. “Development of a scintillation proximity assay for peroxisome proliferator-activated receptor gamma ligand binding domain”, (1998) Anal. Biochem. 257: 112-119.
Bacterial and mammalian expression vectors were constructed to produce glutathione-s-transferase (GST) and Gal4 DNA binding domain (GAL) proteins fused to the ligand binding domain (LBD) of human FXR (aa 193-473). To accomplish this, the portions of the sequences encoding the FXR LBD were amplified by polymerase chain reaction (PCR) from a full-length clone by PCR and then subcloned into the plasmid vectors. The final clone was verified by DNA sequence analysis.
The induction, expression, and subsequent purification of GST-LBD fusion protein was performed in E. coli strain BL21 (pLysS) cells by standard methods (Current Protocols in Molecular Biology, Wiley Press, ed. Ausubel et al.).
Radioligand Binding Assay
Binding of test substances to the FXR ligand binding domain was assessed in a radioligand displacement assay. The assay was performed in a buffer consisting of 50 mM Hepes, pH 7.4, 10 mM NaCl, 5 mM MgCl2, 0.01% CHAPS. For each reaction well in a 96-well plate, 40 nM of GST-FXR LBD fusion protein was bound to […] glutathione ytrium silicate SPA beads (PharmaciaAmersham) in a final volume of […] by shaking. A radioligand (e.g., 20 nM of 2,N-dicyclohexyl-2-[2-(2,4 dimethoxy-phenyl)-benzoimidazol-1-yl]-acetamide) and test compounds were added, and scintillation proximity counting was performed. All binding assays were performed in 96-well plates and the amount of bound ligand was measured on a Packard TopCount using OptiPlates (Packard). Dose response curves were performed within a range of test compound concentrations from 6×10^−9 M to 2.5×10^−5 M and IC50 values were calculated.
As for `O=C(O)COc1ccc(COc2ncccc2-c2nc3cc(F)c(F)cc3n2Cc2ccccc2)cc1` [Example 10, {4-[3-(1-Benzyl-5,6-difluoro-1H-benzoimidazol-2-yl)-pyridin-2-yloxymethyl]-phenoxy}-acetic acid], the IC50 was determined as 12800 nM.

For the compound `Fc1cc2nc(-c3ccccc3CCc3ccc(-c4nnn[nH]4)cc3)n(CC3CCCCC3)c2cc1F` [Example 76, 1-Cyclohexylmethyl-5,6-difluoro-2-(2-{2-[4-(1H-tetrazol-5-yl)-phenyl]-ethyl}-phenyl)-1H-benzoimidazole], the IC50 was found to be 100 nM. The same measure for `CCCOc1cc(Cl)ccc1-c1nc2cc(F)c(F)cc2n1Cc1ccc(-c2nnn[nH]2)cc1F` [Example 91, 2-(4-Chloro-2-propoxy-phenyl)-5,6-difluoro-1-[2-fluoro-4-(1H-tetrazol-5-yl)-benzyl]-1H-benzoimidazole]: 50 nM; for `Clc1ccc(-c2nc3ccccc3n2CC2CCCCC2)c(CCc2ccc(-c3nnn[nH]3)cc2)c1` [Example 74, 2-(4-Chloro-2-{2-[4-(1H-tetrazol-5-yl)-phenyl]-ethyl}-phenyl)-1-cyclohexylmethyl-1H-benzoimidazole]: 30 nM. For the compound `Fc1cc2nc(-c3ccc(Cl)cc3OCc3ccc(-c4nnn[nH]4)c(F)c3)n(CC3CCCCC3)c2cc1F` [Example 33, 2-{4-Chloro-2-[3-fluoro-4-(1H-tetrazol-5-yl)-benzyloxy]-phenyl}-1-cyclohexylmethyl-5,6-difluoro-1H-benzoimidazole], the IC50 worked out at 40 nM. As for `COc1cc(Cl)ccc1-c1nc2cc(F)c(F)cc2n1Cc1ccc(-c2nnn[nH]2)cc1F` [Example 71, 2-(4-Chloro-2-methoxy-phenyl)-5,6-difluoro-1-[2-fluoro-4-(1H-tetrazol-5-yl)-benzyl]-1H-benzoimidazole], the IC50 was 1100 nM. The same measure for `O=C(O)c1cccc(Cn2c(-c3ccc(Cl)cc3OCC3CCCC3)nc3cc(F)c(F)cc32)c1` [Example 61, 3-[2-(4-Chloro-2-cyclopentylmethoxy-phenyl)-5,6-difluoro-benzoimidazol-1-ylmethyl]-benzoic acid]: 500 nM; for `Fc1cc2nc(-c3ccc(Cl)cc3OCC3CCCC3)n(Cc3ccc(-c4nnn[nH]4)cc3F)c2cc1F` [Example 70, 2-(4-Chloro-2-cyclopentylmethoxy-phenyl)-5,6-difluoro-1-[2-fluoro-4-(1H-tetrazol-5-yl)-benzyl]-1H-benzoimidazole]: 10 nM. Turning to `O=C(Nc1cc(Cl)ccc1-c1nc2cc(F)c(F)cc2n1CC1CCCCC1)c1ccc(-c2nnn[nH]2)cc1F` [Example 84, N-[5-Chloro-2-(1-cyclohexylmethyl-5,6-difluoro-1H-benzoimidazol-2-yl)-phenyl]-2-fluoro-4-(1H-tetrazol-5-yl)-benzamide], the IC50 was determined as 0.2 nM. Against the preceding compound, the IC50 is about 50-fold lower. For `CC1CCC(Cn2c(-c3ccccc3CCc3ccc(-c4nnn[nH]4)cc3)nc3ccccc32)CC1` (stereo not drawn) [Example 82, 1-(4-Methyl-cyclohexylmethyl)-2-(2-{2-[4-(1H-tetrazol-5-yl)-phenyl]-ethyl}-phenyl)-1H-benzoimidazole], the IC50 came out at 10 nM. As to `Fc1cc2nc(-c3ccc(Cl)cc3OCc3ccc(-c4nnn[nH]4)s3)n(CC3CCCCC3)c2cc1F` [Example 37, 2-{4-Chloro-2-[5-(1H-tetrazol-5-yl)-thiophen-2-ylmethoxy]-phenyl}-1-cyclohexylmethyl-5,6-difluoro-1H-benzoimidazole], the IC50 was 200 nM. Against the preceding compound, the IC50 is about 20-fold higher. Compound `Fc1cc2nc(-c3cccnc3OCC3CC3)n(Cc3cccc(Cl)c3)c2cc1F` [Example 13, 1-(3-Chloro-benzyl)-2-(2-cyclopropylmethoxy-pyridin-3-yl)-5,6-difluoro-1H-benzoimidazole] gave an IC50 of 3600 nM. As for `O=C(Nc1ccc(-c2nnn[nH]2)cc1F)c1ccccc1-c1nc2cc(F)c(F)cc2n1CC1CCCCC1` [Example 86, 2-(1-Cyclohexylmethyl-5,6-difluoro-1H-benzoimidazol-2-yl)-N-[2-fluoro-4-(1H-tetrazol-5-yl)-phenyl]-benzamide], the IC50 is 3 nM.

Compound `O=C(O)CCc1ccc(Cn2c(-c3cccnc3OCC3CC3)nc3cc(F)c(F)cc32)cc1` [Example 16, 3-{4-[2-(2-Cyclopropylmethoxy-pyridin-3-yl)-5,6-difluoro-benzoimidazol-1-ylmethyl]-phenyl}-propionic acid] came in with an IC50 of 66100 nM. For the compound `Fc1cc2nc(-c3ccc(Cl)cc3OCc3ccc(-c4nnn[nH]4)cc3)n(CC3CCCCC3)c2cc1F` [Example 31, 2-{4-Chloro-2-[4-(1H-tetrazol-5-yl)-benzyloxy]-phenyl}-1-cyclohexylmethyl-5,6-difluoro-1H-benzoimidazole], the IC50 stood at 50 nM. For the compound `O=C(O)c1cccc(COc2cc(Cl)ccc2-c2nc3cc(F)c(F)cc3n2CC2CCCCC2)c1` [Example 24, 3-[5-Chloro-2-(1-cyclohexylmethyl-5,6-difluoro-1H-benzoimidazol-2-yl)-phenoxymethyl]-benzoic acid], the IC50 is 700 nM. Compound `O=C(O)CCc1ccc(Cn2c(-c3ccc(Cl)cc3OCc3ccccc3Cl)nc3cc(F)c(F)cc32)cc1` [Example 58, 3-(4-{2-[4-Chloro-2-(2-chloro-benzyloxy)-phenyl]-5,6-difluoro-benzoimidazol-1-ylmethyl}-phenyl)-propionic acid] registered an IC50 of 30 nM. `Fc1cc2nc(-c3ccc(Cl)cc3C#Cc3ccc(-c4nnn[nH]4)cc3)n(CC3CCCCC3)c2cc1F` [Example 72, 2-{4-Chloro-2-[4-(1H-tetrazol-5-yl)-phenylethynyl]-phenyl}-1-cyclohexylmethyl-5,6-difluoro-1H-benzoimidazole] returned an IC50 of 3600 nM. The same measure for `O=C(O)CCc1ccc(Cn2c(-c3cccnc3OCc3ccccc3Cl)nc3cc(F)c(F)cc32)cc1` [Example 17, 3-(4-{2-[2-(2-Chloro-benzyloxy)-pyridin-3-yl]-5,6-difluoro-benzoimidazol-1-ylmethyl}-phenyl)-propionic acid]: 10200 nM; for `Fc1cc2nc(-c3ccc(Cl)cc3OCC3CCCCO3)n(Cc3ccc(-c4nnn[nH]4)cc3F)c2cc1F` (stereo not drawn) [Example 93, 2-[4-Chloro-2-(tetrahydro-pyran-2-ylmethoxy)-phenyl]-5,6-difluoro-1-[2-fluoro-4-(1H-tetrazol-5-yl)-benzyl]-1H-benzoimidazole]: 60 nM.

`O=C(O)COc1ccc(COc2cc(Cl)ccc2-c2nc3cc(F)c(F)cc3n2Cc2ccccc2)cc1` [Example 52, {4-[2-(1-Benzyl-5,6-difluoro-1H-benzoimidazol-2-yl)-5-chloro-phenoxymethyl]-phenoxy}-acetic acid]: the IC50 turned out to be 800 nM. This IC50 lies about 13-fold higher than the previous one. Turning to `O=C(O)c1ccc(CCc2cc(Cl)ccc2-c2nc3ccccc3n2CC2CCCCC2)cc1` [Example 75, 4-{2-[5-Chloro-2-(1-cyclohexylmethyl-1H-benzoimidazol-2-yl)-phenyl]-ethyl}-benzoic acid], the IC50 was determined as 30 nM. Turning to `O=C(O)c1ccc(COc2cc(Cl)ccc2-c2nc3cc(F)c(F)cc3n2Cc2ccccc2)cc1` [Example 51, 4-[2-(1-Benzyl-5,6-difluoro-1H-benzoimidazol-2-yl)-5-chloro-phenoxymethyl]-benzoic acid], the IC50 was 500 nM. Compared with the last compound, the IC50 is about 17-fold higher.

Regarding `Fc1cc2nc(-c3ccc(Cl)cc3OCc3ccc(-c4nnn[nH]4)cc3F)n(CC3CCCCO3)c2cc1F` (stereo not drawn) [Example 45, 2-{4-Chloro-2-[2-fluoro-4-(1H-tetrazol-5-yl)-benzyloxy]-phenyl}-5,6-difluoro-1-(tetrahydro-pyran-2-ylmethyl)-1H-benzoimidazole], the IC50 stood at 100 nM. The compound `O=C(O)c1ccc(Cn2c(-c3ccc(Cl)cc3OCC3CCCC3)nc3cc(F)c(F)cc32)cc1` [Example 62, 4-[2-(4-Chloro-2-cyclopentylmethoxy-phenyl)-5,6-difluoro-benzoimidazol-1-ylmethyl]-benzoic acid] displayed an IC50 of 400 nM. `CC(C)(C)Cn1c(-c2ccc(Cl)cc2OCc2ccc(-c3nnn[nH]3)cc2F)nc2cc(F)c(F)cc21` [Example 46, 2-{4-Chloro-2-[2-fluoro-4-(1H-tetrazol-5-yl)-benzyloxy]-phenyl}-1-(2,2-dimethyl-propyl)-5,6-difluoro-1H-benzoimidazole] yielded an IC50 of 400 nM. `O=C(O)C1CCC(Cn2c(-c3ccc(Cl)cc3OCC3CCCC3)nc3cc(F)c(F)cc32)CC1` (stereo not drawn) [Example 66, 4-[2-(4-Chloro-2-cyclopentylmethoxy-phenyl)-5,6-difluoro-benzoimidazol-1-ylmethyl]-cyclohexane carboxylic acid] had an IC50 of 1800 nM.
